In patent US20160250228A1 (Acerus Pharmaceuticals Corporation, priority 2011, published 2016):

Experiments:
[1] = reported normal range, cited from earlier work; for Normal Range Max: maximum; for Normal Range Min: minimum
[2] = Baseline (24-hour pre-dose) and normal ranges of endogenous analytes (free/total testosterone, DHT, estradiol, SHBG); settings: for Pooled Baseline Max / Pooled Baseline Min: baseline range observed, all cohorts pooled; for Pooled Baseline Max / Baseline Max, Dose Cohort 600 (μg) / Baseline Max, Dose Cohort 1200 (μg) / Baseline Max, Dose Cohort 1800 (μg): maximum; for Pooled Baseline Min / Baseline Min, Dose Cohort 600 (μg) / Baseline Min, Dose Cohort 1200 (μg) / Baseline Min, Dose Cohort 1800 (μg): minimum; for Baseline Max, Dose Cohort 600 (μg) / Baseline Min, Dose Cohort 600 (μg) / Baseline Max, Dose Cohort 1200 (μg) / Baseline Min, Dose Cohort 1200 (μg) / Baseline Max, Dose Cohort 1800 (μg) / Baseline Min, Dose Cohort 1800 (μg): baseline range; for Baseline Max, Dose Cohort 600 (μg) / Baseline Min, Dose Cohort 600 (μg): 600 μg dose cohort; for Baseline Max, Dose Cohort 1200 (μg) / Baseline Min, Dose Cohort 1200 (μg): 1200 μg dose cohort; for Baseline Max, Dose Cohort 1800 (μg) / Baseline Min, Dose Cohort 1800 (μg): 1800 μg dose cohort
[3] = General properties of testosterone: stability; format: physicochemical; settings: in air

| Molecule | Normal Range Max [1] | Normal Range Min [1] | Pooled Baseline Max [2] | Pooled Baseline Min [2] | Baseline Max, Dose Cohort 600 (μg) [2] | Baseline Min, Dose Cohort 600 (μg) [2] | Baseline Max, Dose Cohort 1200 (μg) [2] | Baseline Min, Dose Cohort 1200 (μg) [2] | Baseline Max, Dose Cohort 1800 (μg) [2] | Baseline Min, Dose Cohort 1800 (μg) [2] | Stability [3] |
| --- | --- | --- | --- | --- | --- | --- | --- | --- | --- | --- | --- |
| C[C@]12CCC(=O)C[C@@H]1CC[C@@H]1[C@@H]2CC[C@]2(C)[C@@H](O)CC[C@@H]12 [Dihydrotestosterone] | 22.00 ng/dL | 4.00 ng/dL | 32.60 ng/dL | 5.02 ng/dL | 22.10 ng/dL | 5.29 ng/dL | 25.30 ng/dL | 5.04 ng/dL | 32.60 ng/dL | 5.02 ng/dL |  |
| C[C@]12CC[C@@H]3c4ccc(O)cc4CC[C@H]3[C@@H]1CC[C@@H]2O [Estradiol] |  |  | 12.2 ng/dL | 1.7 ng/dL | 12.2 ng/dL | 2.09 ng/dL | 11.9 ng/dL | 1.7 ng/dL | 9.74 ng/dL | 1.77 ng/dL |  |
| C[C@]12CC[C@H]3[C@@H](CCC4=CC(=O)CC[C@@]43C)[C@@H]1CC[C@@H]2O [Testosterone, 17β-Hydroxyandrost-4-en-3-one] |  |  |  |  |  |  |  |  |  |  | powder. It is odourless, and stable in air. |
| SHBG (protein, UniProt P04278 30-402, looked up) Sex hormone-binding globulin: LRPVLPTQSAHDPPAVHLSNGPGQEPIAVMTFDLTKITKTSSSFEVRTWDPEGVIFYGDTNPKDDWFMLGLRDGRPEIQLHNHWAQLTVGAGPRLDDGRWHQVEVKMEGDSVLLEVDGEEVLRLRQVSGPLTSKRHPIMRIALGGLLFPASNLRLPLVPALDGCLRRDSWLDKQAEISASAPTSLRSCDVESNPGIFLPPGTQAEFNLRDIPQPHAEPWAFSLDLGLKQAAGSGHLLALGTPENPSWLSLHLQDQKVVLSSGSGPGLDLPLVLGLPLQLKLSMSRVVLSQGSKMKALALPPLGLAPLLNLWAKPQGRLFLGALPGEDSSTSFCLNGLWAQGQRLDVDQALNRSHEIWTHSCPQSPGNGTDASH | 114.00 nmol/L | 18.00 nmol/L | 137.00 nmol/L | 15.30 nmol/L | 102.00 nmol/L | 15.30 nmol/L | 86.70 nmol/L | 16.00 nmol/L | 137.00 nmol/L | 25.20 nmol/L |  |
